Measured values published in patent US11654167B2, “Pharmaceutical composition based on bacteriophages against F. nucleatum; use in the treatment of diseases associated with this pathogen” (priority 2016, dated 2023).

Experiments:
[1] = system: gingival tissue associated with the first molar; experiment: histology of gingival tissue (hematoxylin-eosin), inflammatory response; format: in vivo, Sprague Dawley rat; conditions: chlorhexidine 0.12% and/or amoxicillin (50 mg/Kg)
Procedure: In order to perform the analysis of gingival tissue associated with the first molar once the piece is worn out, this one is fixed in a solution of paraformaldehyde at 10% for 24 hours. Afterwards, the bone is decalcified in an […] solution for 24 hours. The decalcified tissue was soaked in paraffin blocks, in order to be cut afterwards by a microtome in transversal sections for 4μ, in order to be finally stained with the hematoxylin-eosin staining. […] The presence or absence of inflammation in the tissue was examined by using the following parameters: Hematopoietic distribution, presence of vasodilation, thickness of keratinized epithelial tissue, presence of immune cells (lymphocytes, monocytes, polymorph nuclear, etc.), prisoners of inflammatory focus and cell infiltration in keratinized epithelium. In this way, the manifestations of acute or chronic inflammatory response and the normal, incipient, or established inflammatory response were determined.

RANKL and OPG = experiment: bone reabsorption indicators RANKL and OPG in plasma by indirect ELISA; format: in vivo, Sprague Dawley rat; conditions: chlorhexidine 0.12% and/or amoxicillin
Procedure: The determination of bone reabsorption of the different subjects of treatment is performed based on measuring the molecules associated with this type of physiological response. The levels of RANKL and OPG molecules are measured by Enzyme-Linked ImmunoSorbent Assay (ELISA), specifically the ELISA indirect type, performed from a plasma sample. The blood sample was extracted as follows: the rat is deeply anesthetized with ketamine:xylazine, via the intraperitoneal route. The rat is treated with heparin 2 minutes before surgery, also via the intraperitoneal route with 200-300 μL. […]
Prior to the use of plasma, a quantification of proteins (mg/mL) of each sample is performed by the concentrated Bradford protocol (5×). […] Finally, the absorbance is measured at 595 nm in a plate reader (SQ-2800 model spectrophotometer, United Products & Instruments Inc., Dayton, USA). […]
It is mixed and protected from the light. […] Afterwards, in order to stop the reaction, 100 μL of NaOH 3N, in order to finally read the absorbency of each well at 405 nm in an ELISA reader. • In order to obtain the values of concentration for each sample, the Lambert-Beer formula was used: Abs405=ε*d*[mM]; • where ε: extinction coefficient 18.5*10^3 M^−1 cm^−1 and d: length of the well 1 cm. […]

F. nucleatum [2] = experiment: detection of F. nucleatum by PCR in co-infected rats; format: in vivo, Sprague Dawley rat; conditions: chlorhexidine 0.12% and/or amoxicillin
Procedure: (§1) Methodology consists in co-infecting rats with P. gingivalis and F. nucleatum, and treating or not treating them with the mixture of bacteriophages Fnpϕ02-14, Fnpϕ11 and Fnnϕ107 at different MOI. The procedure for each stage is described below:
(§2) Finally, on week 10, the sacrifice of the rats of the group is performed. The initial treatment of local cleaning with CHX 0.12% and the local administration of the bacteria mixture is performed under anesthesia for 5-10 sec. with isoflurane gas. The sacrifice of the rats was performed with an anesthesia overdose of Ketamine:Xylazine (2:1).
(§3) The mixture of the three lytic bacteriophages Fnpϕ02-14, Fnpϕ11 and Fnnϕ107, specific for F. nucleatum, is performed, with a concentration of 10^8, 10^10 and 10^8 UFP/mL, respectively. Afterwards, it was kept at 4° C. until it was used.
Each research group is composed by 3 subjects per cage, and there ware a number of 6 subjects per group. The research groups are the following: Group 1 (Continuous treatment phage), in which the administration of the mixture of bacteriophages in a multiplicity of infection (MOI) of 0.01 (1 bacteria for 100 phages) is performed, in the same inoculation times as the bacteria mixture (week 2, 4, 6 and 8), for 4 days every time. […]

[3] = system: alveolar bone of the first molar; experiment: bone loss of alveolar bone of the first molar; format: in vivo, Sprague Dawley rat; conditions: chlorhexidine 0.12% and/or amoxicillin
Procedure: In order to determine bone loss, we measured directly the alveolar bone of the first molar in the hemi sectioned right jaw of each subject. In order to obtain the alveolar bone, the jaw extraction is performed and autoclaved for 20 min. The first cleaning is performed, removing the associated tissue. Afterwards, the bones are soaked in hydrogen peroxide at 3% for all night at room temperature. After this time, the pieces were washed with distilled water in order to eliminate any remainder of adhered tissue; the bone is brushed with toothpaste and finally washed with distilled water. Clean jaws are stained with methylene blue at 1% for 15 seconds, and then washed with distilled water to remove the excess of stain. The pieces are left to dry by air, and it is in this moment when the limit cement-enamel appears in the associated dental piece. The measure is obtained by measuring from the exposed base of the root of the tooth to the cement-enamel limit.

F. nucleatum [4] = experiment: in vivo bacteria count of F. nucleatum in co-infected rats; set-up: species or system Sprague Dawley rat; conditions: chlorhexidine 0.12% local cleaning and/or amoxicillin (50 mg/Kg) in water
Procedure: An evaluation is performed to determine the effect of these treatments on the microbiological count associated with periodontal destruction in Sprague Dawley rat models inoculated with P. gingivalis and F. nucleatum, the main pathogens of the etiology of periodontal disease.
as §1, §2, §3
Each research group is composed by 3 subjects per cage, and there ware a number of 6 subjects per group. […]

Row | Structure (SMILES) | inflammatory response in histological sections [1] | ratio RANKL/OPG versus control group without treatment (RANKL and OPG) | detection of F. nucleatum by PCR, post-treatment versus pre-treatment samples (F. nucleatum [2]) | bone loss of alveolar bone versus control group [3] | F. nucleatum count after versus before treatment (F. nucleatum [4])
1 | CC1(C)S[C@@H]2[C@H](NC(=O)[C@H](N)c3ccc(O)cc3)C(=O)N2[C@H]1C(=O)O [amoxicillin] | presence of an acute incipient inflammatory response | present significant differences | lower count of positive detections | do not avoid bone loss | only the count in the post mortem sample decreases
2 | [H]/N=C(\N/C(=N/[H])NCCCCCCNC(=N)NC(=N)Nc1ccc(Cl)cc1)Nc1ccc(Cl)cc1 [chlorhexidine] | presence of an active acute inflammatory response | do not present significant differences | lower count of positive detections | do not avoid bone loss | tendency to reducing bacteria count
